The source made the active and inactive calls. The rule behind the calls is not given here.
Experiments:
[1] = system: K562; assay: Downregulation of mcl-1 levels in human K562 cells at 1 to 2 uM incubated for 24 hrs by western blot analysis; assay type: functional, cell-based; conditions: dose 1-2 µM
[2] = Bioavailability in Sprague Dawley rat at 10 mg/kg, ip measured after 24 hrs; assay type: ADME, organism-based; conditions: in vivo
[3] = AUC (0 to infinity) in Sprague Dawley rat at 10 mg/kg, ip measured after 24 hrs; assay type: ADME, organism-based; set-up: route intraperitoneal, dose 10 mg/kg, time 24 hrs; conditions: in vivo
[4] = system: MOLM-13; assay: Induction of apoptosis in human MOLM-13 cells assessed as live cells at 2 uM incubated for 12 hrs by annexin-V and propidium iodide staining based flow cytometry analysis (reference value: 91.49%); assay type: functional
[5] = target: Serine/threonine-protein kinase pim-3 (Homo sapiens, UniProt Q86V86); assay: Inhibition of wild-type human partial length PIM3 (G16 to A317 residues) expressed in bacterial expression system at 1 uM by Kinomescan method relative to control

- bioavailability [2]: 20.6%
- AUC(0-inf) [3]: 1680 ng·h/mL
- inhibition [5]: 90%
SMILES: CC(C)Oc1cc(F)ccc1Nc1ncnc2ccc(-c3ccc(C(=O)N4CCNCC4)cc3)nc12
- Activity [1]: Active
- Activity [4]: 61.5%

— ChEMBL document CHEMBL4825757, “Optimization of 4,6-Disubstituted Pyrido[3,2-d]pyrimidines as Dual MNK/PIM Inhibitors to Inhibit Leukemia Cell Growth” (J Med Chem, 2021)
